In paper PMC7665585, “Antidepressive effect of an inward rectifier K^+ channel blocker peptide, tertiapin-RQ” (PLoS ONE, 2020):
Bridge positions count the residues as written; N and C are the ends. Peptide text beside a SMILES is read from it.

How the values were obtained:
[1] = system: Male ICR mice; experiment: Tail suspension test (TST); type: in vivo, mouse; details: 750 pmole i.c.v., 30 min before test, 5 min recording
Procedure: We performed mouse behavioral experiments in accordance with our previous study. Male ICR mice (n = 199 in total) aged 5 weeks old were purchased from Shimizu Laboratory Supplies (Kyoto, Japan) and maintained in an animal facility for 7–12 days. They had free access to food and water and were kept in a 12-h light/dark cycle (08:00–20:00). Experiments were carried out between 11:00 and 17:00 in a quiet and air-conditioned experimental room, to which mice were habituated for 30–60 min before each experiment. Animal experiments were performed in accordance with the guidelines of the Physiological Society of Japan and were approved by the Committee for Animal Experiments of Kurashiki University of Science and the Arts. Peptides were dissolved in phosphate-buffered saline (PBS). Peptides were injected intracerebroventricularly (i.c.v.) 30 min before behavioral tests (typically 5 μL/mouse), according to a previous study. The mouse was placed into an anesthetizing jar, to which isoflurane (0.2 mL) was added immediately before. After confirming that the mouse was deeply anesthetized we injected the peptide into the right cerebral ventricle over 30 seconds and the injection needle was kept for 1 min after the injection (i.c.v. coordinates: 0 mm caudal to bregma, 1.0 mm lateral to the midline, and 3.5 mm below the skull). The mouse was placed in a cage set on a heating pad (approximately 33°C) for a few minutes until it spontaneously started to move, and then it was put back into its home cage. Each animal was used only once, except for the wheel running test, which was carried out immediately after the elevated plus-maze.
The tail suspension test (TST) was performed in accordance with the method reported previously. The mouse was hung on a hook using adhesive tape placed 2 cm from the extremity of its tail 50 cm above a table. The amount of time spent immobile was recorded for 5 min.

[2] = system: Male ICR mice; experiment: Balance beam test; type: in vivo, mouse; details: i.c.v.; 10 mm and 6 mm beams, central 60 cm
Procedure: We performed mouse behavioral experiments in accordance with our previous study. Male ICR mice (n = 199 in total) aged 5 weeks old were purchased from Shimizu Laboratory Supplies (Kyoto, Japan) and maintained in an animal facility for 7–12 days. They had free access to food and water and were kept in a 12-h light/dark cycle (08:00–20:00). Experiments were carried out between 11:00 and 17:00 in a quiet and air-conditioned experimental room, to which mice were habituated for 30–60 min before each experiment. Animal experiments were performed in accordance with the guidelines of the Physiological Society of Japan and were approved by the Committee for Animal Experiments of Kurashiki University of Science and the Arts. Peptides were dissolved in phosphate-buffered saline (PBS). Peptides were injected intracerebroventricularly (i.c.v.) 30 min before behavioral tests (typically 5 μL/mouse), according to a previous study. The mouse was placed into an anesthetizing jar, to which isoflurane (0.2 mL) was added immediately before. […]
Motor coordination was assessed by measuring the ability to traverse a narrow beam to reach a familiar cage. […] The time required to cross the central 60 cm of the beam was measured.

[3] = Chemical stability in mouse serum by HPLC; type: in vitro ADME; details: 33.0 μM peptide mixed with equal volume of mouse serum, 37°C, 30 min; cation-exchange HPLC (HiTrap-SP), A230 nm
Procedure: For the examination of the chemical stability, the peptide was analyzed with high-performance liquid chromatography (HPLC, JASCO, Tokyo, Japan) using a cation-exchange column (HiTrap-SP, Cytiva). TPN-RQ 33.0 μM, which was mixed with an equal volume of PBS or mouse serum, was analyzed with HPLC immediately after mixing or after incubation at 37°C for 30 min. Peptides were eluted with a gradient of NaCl from 200 to 2,000 mM in 10 mM Tris-HCl (pH 7.4), monitoring A230 nm with a UV detector (JASCO).

CC[C@H](C)[C@@H]1NC(=O)[C@H](CCCNC(=N)N)NC(=O)[C@H](CC(N)=O)NC(=O)[C@@H]2CSSC[C@@H](C(=O)NCC(=O)N[C@@H](CCCCN)C(=O)N[C@@H](CCCCN)C(N)=O)NC(=O)[C@H](CCCCN)NC(=O)[C@H](CCCCN)NC(=O)[C@H](Cc3c[nH]c4ccccc34)NC(=O)[C@H](CSSC[C@H](NC(=O)[C@H](CC(C)C)NC(=O)[C@H](C)N)C(=O)N[C@@H](CC(N)=O)C(=O)N2)NC(=O)[C@H](CCC(N)=O)NC(=O)[C@H](CC(C)C)NC(=O)[C@@H]2CCCN2C(=O)[C@H]([C@@H](C)CC)NC(=O)[C@H]([C@@H](C)CC)NC1=O [Peptide 3, TPN-LQ] (H-ALCNCNRIIIPLQCWKKCGKK-NH2; disulfide 3-14, 5-18; N-terminus and C-terminus assumed)
immobile time in TST [1]: decreased the immobile time

CC[C@H](C)[C@@H]1NC(=O)[C@H](CCCNC(=N)N)NC(=O)[C@H](CCCNC(=N)N)NC(=O)[C@H](CC(N)=O)NC(=O)[C@@H]2CSSC[C@@H](C(=O)NCC(=O)N[C@@H](CCCCN)C(=O)N[C@@H](CCCCN)C(N)=O)NC(=O)[C@H](CCCCN)NC(=O)[C@H](CCCCN)NC(=O)[C@H](Cc3c[nH]c4ccccc34)NC(=O)[C@H](CSSC[C@H](NC(=O)[C@H](CC(C)C)NC(=O)[C@H](C)N)C(=O)N[C@@H](CC(N)=O)C(=O)N2)NC(=O)[C@H](CCC(N)=O)NC(=O)[C@H](Cc2c[nH]cn2)NC(=O)[C@@H]2CCCN2C(=O)[C@H]([C@@H](C)CC)NC1=O [Peptide 2, TPN-RQ] (H-ALCNCNRRIIPHQCWKKCGKK-NH2; disulfide 3-14, 5-18)
time required to cross the beam [2]: longer
chemical stability in mouse serum (HPLC peak height and retention time) [3]: No changes in the peak height or retention time
